The structures appear in SMILES notation. pIC50: −log10 of the molar value. Active and inactive are the calls of the source. The calls are words filed in the database; no cut-off is given here.

The text below walks through data of ChEMBL document CHEMBL4321809, “Structure-Reactivity Relationships on Substrates and Inhibitors of the Lysine Deacylase Sirtuin 2 from Schistosoma mansoni (SmSirt2)” (J Med Chem, 2019).

In data set [1] the target is T1, NAD-dependent protein deacetylase (Schistosoma mansoni) (UniProt T1VXA1).
T1 sequence (whole entry): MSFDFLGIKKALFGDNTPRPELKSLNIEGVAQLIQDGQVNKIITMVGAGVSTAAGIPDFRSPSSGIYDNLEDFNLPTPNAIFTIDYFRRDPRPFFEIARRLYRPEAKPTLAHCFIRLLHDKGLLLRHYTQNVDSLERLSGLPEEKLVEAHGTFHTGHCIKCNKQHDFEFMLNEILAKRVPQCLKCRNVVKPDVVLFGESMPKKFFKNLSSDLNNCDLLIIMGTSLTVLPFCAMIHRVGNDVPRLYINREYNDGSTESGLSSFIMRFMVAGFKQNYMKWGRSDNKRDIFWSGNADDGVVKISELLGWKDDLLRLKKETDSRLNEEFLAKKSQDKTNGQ
In words: Inhibition of recombinant Schistosoma mansoni sirtuin 2 (21 to 322 residues) expressed in Escherichia coli BL21(DE3) cells assessed as inhibition of substrate deacetylation at 20 uM using ZMAL as substrate relative to control.

Data set [2] has as its target T1, NAD-dependent protein deacetylase (Schistosoma mansoni). In words: Inhibition of recombinant Schistosoma mansoni sirtuin 2 (21 to 322 residues) expressed in Escherichia coli BL21(DE3) cells assessed as inhibition of substrate demyristoylation at 20 uM using (Z)-(Myr)-Lys-AMC as substrate relative to control.
Data set [3] has as its target T2, NAD-dependent protein deacetylase sirtuin-2 (Homo sapiens, UniProt Q8IXJ6).
T2 sequence (Q8IXJ6 whole entry): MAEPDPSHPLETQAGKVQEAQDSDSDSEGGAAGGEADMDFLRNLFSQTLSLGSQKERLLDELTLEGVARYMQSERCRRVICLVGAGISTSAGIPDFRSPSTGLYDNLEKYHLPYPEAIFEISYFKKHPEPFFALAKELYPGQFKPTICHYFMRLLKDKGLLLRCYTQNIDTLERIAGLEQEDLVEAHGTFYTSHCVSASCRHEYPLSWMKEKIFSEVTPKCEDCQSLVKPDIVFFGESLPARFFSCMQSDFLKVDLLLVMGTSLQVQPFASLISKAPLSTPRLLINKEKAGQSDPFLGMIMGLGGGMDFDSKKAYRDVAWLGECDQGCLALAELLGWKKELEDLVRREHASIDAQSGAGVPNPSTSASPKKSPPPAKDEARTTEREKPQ
In words: Inhibition of human sirtuin 2 assessed as inhibition of substrate deacetylation using ZMAL as substrate.

Data set [4] addresses T2, NAD-dependent protein deacetylase sirtuin-2. In words: Inhibition of human sirutin 2 assessed as inhibition of susbtrate demyristoylation at 20 uM using (Z)-(Myr)-Lys-AMC as substrate relative to control.
In data set [5] the target is T3, NAD-dependent protein deacetylase (Schistosoma mansoni, UniProt T1VXA1).
T3 sequence (T1VXA1 whole entry): T1 sequence (whole entry)
In words: Inhibition of recombinant Schistosoma mansoni sirtuin 2 (21 to 322 residues) expressed in Escherichia coli BL21(DE3) cells using ZMAL as substrate after 1 hr in presence of NAD+ by homogeneous fluorescence based analysis.

The target in data set [6] is T2, NAD-dependent protein deacetylase sirtuin-2. In words: Inhibition of N-terminal His6 tagged human sirtuin 2 (25 to 389 residues) at 50 uM using Cbz-Lys(acetyl)-AMC as substrate after 4 hrs in presence of NAD+ by homogeneous fluorescence based analysis relative to control.
Data set [7] has the same target. In words: Inhibition of N-terminal His6 tagged human sirtuin 2 (25 to 389 residues) at 25 uM using Cbz-Lys(acetyl)-AMC as substrate after 4 hrs in presence of NAD+ by homogeneous fluorescence based analysis relative to control.
In data set [8] the target is T3, NAD-dependent protein deacetylase. In words: Inhibition of recombinant Schistosoma mansoni sirtuin 2 (21 to 322 residues) expressed in Escherichia coli BL21(DE3) cells assessed as inhibition of substrate demyristoylation using (Z)-(Myr)-Lys-AMC as susbtrate after 1 hr in presence of NAD+ by homogeneous fluorescence based analysis.
Data set [9] deals with T1, NAD-dependent protein deacetylase (Schistosoma mansoni). In words: Inhibition of recombinant Schistosoma mansoni sirtuin 2 (21 to 322 residues) expressed in Escherichia coli BL21(DE3) cells assessed as inhibition of substrate demyristoylation at 20 uM using (Z)-(Myr)-Lys-AMC as susbtrate after 1 hr in presence of NAD+ by homogeneous fluorescence based analysis relative to control.

For data set [10], the target named is T2, NAD-dependent protein deacetylase sirtuin-2. In words: Inhibition of N-terminal His6 tagged human sirtuin 2 (25 to 389 residues) assessed as inhibition of substrate demyristoylation at 20 uM using (Z)-(Myr)-Lys-AMC as susbtrate after 4 hrs in presence of NAD+ by homogeneous fluorescence based analysis relative to control.
The subject of data set [11] is Schistosoma mansoni. In words: Antiparasitic activity against Schistosoma mansoni Puerto Rico assessed as reduction in parasite viability at 10 to 20 uM after 72 hrs by microscopic analysis. It counts as functional, organism-based.
Data set [12] concerns Schistosoma mansoni. In words: Antiparasitic activity against adult Schistosoma mansoni Puerto Rico assessed as reduction in worm pairing at 10 to 20 uM after 24 hrs by microscopic analysis. The class given is functional, organism-based.
Data set [13] deals with Schistosoma mansoni. In words: Antiparasitic activity against adult Schistosoma mansoni Puerto Rico assessed as reduction in egg laying at 10 to 20 uM after 24 hrs by microscopic analysis. It counts as functional, organism-based.
The test system of the next data set is HL-60. In words: Cytotoxicity against human HL60 cells at 10 uM after 72 hrs by Cell titer MTS dye based analysis. Conditions: hl-60, 72 h. (Tetrazolium dyes change colour on reduction, which living cells bring about.)

The term inhibition denotes the relative decrease from the control value, in per cent. One may read the pIC50 as −log10 of the IC50, conventionally taken in molar units. Consider `O=C(NCc1cccnc1)c1ccc2c(c1)C1C3CCC(C3)C1C(c1ccccc1)N2` (centres undefined), for which the inhibition in data set [1] and in [2] was under 15% throughout. In addition, in [3], the pIC50 is 5.60. For the same compound, the inhibition at 20 µM in data set [4] came out at 42.8%.

For the compound `COc1ccc(Oc2ccc(C(C)N(C)c3ncc4c(N)nc(N)nc4n3)cc2)cc1` (centres undefined), the negative logarithm of the IC50 (pIC50) in data set [5] is 4.63; in data set [8], 4.77. For the same compound, the inhibition at 50 µM in [6] was found to be 24.1%. The inhibition at 25 µM in data set [7] is 21.9%. Besides, the Imax in data set [9] was found to be 45%. Also, the inhibition at 20 µM in data set [10] was under 15%. Besides, the inhibition entry in the data set on Schistosoma mansoni [11], in the data set with Schistosoma mansoni [12] and in the data set on Schistosoma mansoni [13] was “Active” throughout. Moreover, the Activity entry with HL-60 is recorded as “Non-Toxic”.
